Test results: PubChem BioAssay (NCI)
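Results reflect a 48-hour exposure of cells in 96-well plates to compound at five concentrations. At the GI50, growth is halved. TGI: concentration producing complete growth inhibition.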

Experiments:
Test in all cases: inhibition of tumour cell growth, NCI panel, 48 h
OVCAR-8 ovarian = test system: OVCAR-8 ovarian
RPMI-8226 leukemia = test system: RPMI-8226 leukemia
A549 NSCLC = test system: A549 NSCLC
SK-MEL-28 melanoma = test system: SK-MEL-28 melanoma
SN12C renal = test system: SN12C renal
KM12 colon = test system: KM12 colon
PC-3 prostate = test system: PC-3 prostate
HOP-92 NSCLC = test system: HOP-92 NSCLC
HCC-2998 colon = test system: HCC-2998 colon
NCI/ADR-RES ovarian = test system: NCI/ADR-RES ovarian
MDA-MB-231 breast = test system: MDA-MB-231 breast
T-47D breast = test system: T-47D breast
SK-MEL-2 melanoma = test system: SK-MEL-2 melanoma
EKVX NSCLC = test system: EKVX NSCLC
OVCAR-5 ovarian = test system: OVCAR-5 ovarian
M14 melanoma = test system: M14 melanoma
NCI-H23 lung = test system: NCI-H23 lung
SK-MEL-5 melanoma = test system: SK-MEL-5 melanoma
ACHN renal = test system: ACHN renal
RXF 393 renal = test system: RXF 393 renal
U251 CNS = test system: U251 CNS
OVCAR-3 ovarian = test system: OVCAR-3 ovarian
COLO 205 colon = test system: COLO 205 colon
MDA-MB-435 = test system: MDA-MB-435
DU-145 prostate = test system: DU-145 prostate
SK-OV-3 ovarian = test system: SK-OV-3 ovarian
MCF7 breast = test system: MCF7 breast
UO-31 renal = test system: UO-31 renal
SF-539 CNS = test system: SF-539 CNS
BT-549 breast = test system: BT-549 breast
SF-295 CNS = test system: SF-295 CNS
CCRF-CEM leukemia = test system: CCRF-CEM leukemia
NCI-H522 lung = test system: NCI-H522 lung
SF-268 CNS = test system: SF-268 CNS
K-562 leukemia = test system: K-562 leukemia
786-0 renal = test system: 786-0 renal
TK-10 renal = test system: TK-10 renal
CAKI-1 renal = test system: CAKI-1 renal
SR leukemia = test system: SR leukemia
HT29 colon = test system: HT29 colon
SNB-19 CNS = test system: SNB-19 CNS
NCI-H460 lung = test system: NCI-H460 lung
SW-620 colon = test system: SW-620 colon
MOLT-4 leukemia = test system: MOLT-4 leukemia
A498 renal = test system: A498 renal
MALME-3M melanoma = test system: MALME-3M melanoma
UACC-257 melanoma = test system: UACC-257 melanoma
UACC-62 melanoma = test system: UACC-62 melanoma
HCT-116 colon = test system: HCT-116 colon
HS 578T breast = test system: HS 578T breast
HCT-15 colon = test system: HCT-15 colon
HOP-62 NSCLC = test system: HOP-62 NSCLC

Compound: COc1ccc2cc(C(=O)/C=C/c3ccc(Cl)cc3Cl)ccc2c1
- GI50 (OVCAR-8 ovarian): 14.8 µM
- TGI (OVCAR-8 ovarian): 30.4 µM
- GI50 (RPMI-8226 leukemia): 6.81 µM
- TGI (RPMI-8226 leukemia): > 100 µM
- GI50 (A549 NSCLC): 14.1 µM
- TGI (A549 NSCLC): 31.9 µM
- GI50 (SK-MEL-28 melanoma): 29.9 µM
- TGI (SK-MEL-28 melanoma): > 100 µM
- GI50 (SN12C renal): 25.9 µM
- TGI (SN12C renal): 67.9 µM
- GI50 (KM12 colon): 14.3 µM
- TGI (KM12 colon): 35 µM
- GI50 (PC-3 prostate): 30.8 µM
- TGI (PC-3 prostate): > 100 µM
- GI50 (HOP-92 NSCLC): > 100 µM
- TGI (HOP-92 NSCLC): > 100 µM
- GI50 (HCC-2998 colon): 15.3 µM
- TGI (HCC-2998 colon): 29.1 µM
- GI50 (NCI/ADR-RES ovarian): 23 µM
- TGI (NCI/ADR-RES ovarian): > 100 µM
- GI50 (MDA-MB-231 breast): 44.6 µM
- TGI (MDA-MB-231 breast): > 100 µM
- GI50 (T-47D breast): 20.8 µM
- TGI (T-47D breast): 66.8 µM
- GI50 (SK-MEL-2 melanoma): 44.4 µM
- TGI (SK-MEL-2 melanoma): 95.7 µM
- GI50 (EKVX NSCLC): 9.79 µM
- TGI (EKVX NSCLC): 26.4 µM
- GI50 (OVCAR-5 ovarian): 48.4 µM
- TGI (OVCAR-5 ovarian): > 100 µM
- GI50 (M14 melanoma): 8.75 µM
- TGI (M14 melanoma): 28 µM
- GI50 (NCI-H23 lung): 20.5 µM
- TGI (NCI-H23 lung): 53.4 µM
- GI50 (SK-MEL-5 melanoma): 12.1 µM
- TGI (SK-MEL-5 melanoma): 29.9 µM
- GI50 (ACHN renal): 15.1 µM
- TGI (ACHN renal): 51.3 µM
- GI50 (RXF 393 renal): 4.52 µM
- TGI (RXF 393 renal): 14.5 µM
- GI50 (U251 CNS): 16.7 µM
- TGI (U251 CNS): 36.2 µM
- GI50 (OVCAR-3 ovarian): 16.8 µM
- TGI (OVCAR-3 ovarian): 43.9 µM
- GI50 (COLO 205 colon): 20.3 µM
- TGI (COLO 205 colon): 55.7 µM
- GI50 (MDA-MB-435): 4.5 µM
- TGI (MDA-MB-435): 17.7 µM
- GI50 (DU-145 prostate): 23 µM
- TGI (DU-145 prostate): 62.1 µM
- GI50 (SK-OV-3 ovarian): 61.6 µM
- TGI (SK-OV-3 ovarian): > 100 µM
- GI50 (MCF7 breast): 18.1 µM
- TGI (MCF7 breast): > 100 µM
- GI50 (UO-31 renal): 15.5 µM
- TGI (UO-31 renal): 32.3 µM
- GI50 (SF-539 CNS): 3.98 µM
- TGI (SF-539 CNS): 13.7 µM
- GI50 (BT-549 breast): 0.963 µM
- TGI (BT-549 breast): 4.6 µM
- GI50 (SF-295 CNS): 35.9 µM
- TGI (SF-295 CNS): > 100 µM
- GI50 (CCRF-CEM leukemia): 6.74 µM
- TGI (CCRF-CEM leukemia): > 100 µM
- GI50 (NCI-H522 lung): 32.8 µM
- TGI (NCI-H522 lung): 85.5 µM
- GI50 (SF-268 CNS): > 100 µM
- TGI (SF-268 CNS): > 100 µM
- GI50 (K-562 leukemia): 2.53 µM
- TGI (K-562 leukemia): 14.5 µM
- GI50 (786-0 renal): 8.13 µM
- TGI (786-0 renal): 24.3 µM
- GI50 (TK-10 renal): 27.7 µM
- TGI (TK-10 renal): > 100 µM
- GI50 (CAKI-1 renal): 15.8 µM
- TGI (CAKI-1 renal): 70 µM
- GI50 (SR leukemia): 3.67 µM
- TGI (SR leukemia): 17.3 µM
- GI50 (HT29 colon): 6.63 µM
- TGI (HT29 colon): 51.3 µM
- GI50 (SNB-19 CNS): 25.7 µM
- TGI (SNB-19 CNS): 71.5 µM
- GI50 (NCI-H460 lung): 70.7 µM
- TGI (NCI-H460 lung): > 100 µM
- GI50 (SW-620 colon): 7.83 µM
- TGI (SW-620 colon): 25.5 µM
- GI50 (MOLT-4 leukemia): 4.01 µM
- TGI (MOLT-4 leukemia): 17.7 µM
- GI50 (A498 renal): 19.8 µM
- TGI (A498 renal): 36 µM
- GI50 (MALME-3M melanoma): 23.5 µM
- TGI (MALME-3M melanoma): > 100 µM
- GI50 (UACC-257 melanoma): 20 µM
- TGI (UACC-257 melanoma): 55 µM
- GI50 (UACC-62 melanoma): 12 µM
- TGI (UACC-62 melanoma): 86.5 µM
- GI50 (HCT-116 colon): 3.04 µM
- TGI (HCT-116 colon): 10.3 µM
- GI50 (HS 578T breast): 28.1 µM
- TGI (HS 578T breast): 73.7 µM
- GI50 (HCT-15 colon): 9.17 µM
- TGI (HCT-15 colon): 29.7 µM
- GI50 (HOP-62 NSCLC): 24 µM
- TGI (HOP-62 NSCLC): 50.8 µM
